Reference: patent US20120196933A1, “MEXILETINE PRODRUGS” (priority 2010, published 2012)
Where “and” joins values, the source holds several entries; their conditions need not be identical. Equal values may be shown once. Read-outs that look alike come from different tables or passages of the source. Marks after values point to notes of the source that are not given here.

Assays:
ADR mouse = experiment: Anti-myotonic effects in the ADR mouse (righting response); format: in vivo
Experimental: The effects of oral administration of either mexiletine glutamic acid amide at 5, 10 or 20 mg/kg or mexiletine 5 mg/kg on the righting response of a group of three adr/adr mice were examined on three separate days. Each assessment involved placing the individual mice on their back no fewer than seven successive occasions in rapid succession and determining the time to successful righting at various time pre and post dosing (−10, +15, +30, +60, +120 & +180 mins).

[1] = In vitro stability of mexiletine prodrugs under conditions prevailing in the gut; format: physicochemical; settings: HPLC
Experimental: To investigate if the prodrugs of the present invention are stable in conditions mimicking the gut, various mexiletine amino acid prodrugs were incubated at 37° C. in simulated gastric and simulated intestinal juice (USP defined composition) for 2 hours. The remaining concentrations of the prodrug were then assayed by HPLC.

[2] = as above; format: physicochemical; settings: 0.1M phosphate buffer pH 7.4, 2 h
[3] = Systemic availability of mexiletine in the cynomolgus monkey from mexiletine prodrugs (oral gavage); format: in vivo; settings: 1 mg/kg mexiletine free base
Experimental: Test substances (i.e., mexiletine, and various mexiletine amino acid prodrugs) were administered by oral gavage to groups of two and, in one case, five male cynomolgus monkeys. Blood samples were taken at various times after administration and submitted to analysis for the parent drug using a validated LC-MS-MS assay. Pharmacokinetic parameters derived from the plasma bioanalytical data were determined using Win Nonlin.

[4] = tested on: 9-AC induced myotonia in the rat; experiment: Anti-myotonic effects in 9-anthracene carboxylic acid (9-AC) treated rats (righting time); format: in vivo; settings: for Mean ± SEM righting response time: 9-AC 30 mg/kg ip
Experimental: The use of ip injection of 9-anthracene carboxylic acid is known to induce a myotonic state in rats which can then be used to assess the activity of potential anti-myotonic compounds (Villegas-NavarroA et al (1992) Exp. Toxicol. Pathol. 44 34-39).
Groups of four rats were predosed with 30 mg/kg 9-AC (time 0) and ten minutes later their righting time was assessed repeatedly seven times in rapid succession. They were then dosed po with mexiletine or mexiletine glutamic acid amide at 1, 5, 10, 20 or 40 mg/kg and the righting time reassessed at ˜30, 60, 120 and 180 minutes after 9-AC injection. At each dose level, a group of four control animals, given vehicle alone, was used

[5] = rat
Experimental: Test substances (i.e., mexiletine & mexiletine glutamic acid amide) were administered by oral gavage to groups of five male Sprague Dawley rats.
Blood samples were taken at various times after administration and submitted to analysis for the prodrug and parent drug using a validated LC-MS-MS assay. Pharmacokinetic parameters derived from the plasma analytical were determined using Win Nonlin.

[6] = Systemic availability of mexiletine in the dog from mexiletine prodrugs (oral gavage); format: in vivo
Experimental: Test substances (i.e., mexiletine, and various mexiletine amino acid prodrugs) were administered by oral gavage to groups of two or some cases five dogs. The characteristics of the test animals are set out in Table 6.
Blood samples were taken at various times after administration and submitted to analysis for parent drug using a validated LC-MS-MS assay. Pharmacokinetic parameters derived from the plasma bioanalytical data were determined using Win Nonlin.

[7] = oral 5 mg mexiletine free base equivalents/kg, individual animals, Hydrochloride
[8] = oral 5 mg mexiletine free base equivalents/kg, plasma prodrug, individual animals, Hydrochloride
[9] = oral 5 mg mexiletine free base equivalents/kg, plasma prodrug, mean
[10] = 1 mg/kg mexiletine free base, plasma mexiletine

Cc1cccc(C)c1OCC(C)NC(=O)C(N)CCC(=O)O.Cl (mixture of isomers) [Mexiletine glutamic acid amide, Mexiletine-(S)-Glutamic Acid Amide Hydrochloride]
Effects on righting time (ADR mouse; oral 5 mg/kg): marginal
Mean ± SEM righting response time (ADR mouse; oral 5 mg/kg, +15 mins): 5.70 ± 0.864 s
Mean ± SEM righting response time (ADR mouse; oral 5 mg/kg, +30 mins): 6.53 ± 0.928 s
Mean ± SEM righting response time (ADR mouse; oral 5 mg/kg, +60 mins): 7.13 ± 1.46 s
Mean ± SEM righting response time (ADR mouse; oral 5 mg/kg, +120 mins): 9.22 ± 1.44 s
Mean ± SEM righting response time (ADR mouse; oral 5 mg/kg, +180 mins): 8.38 ± 0.601 s
Mean ± SEM righting response time (ADR mouse; oral 5 mg/kg, −10 mins (pre dosing)): 5.10 ± 0.580 s
Mean ± SEM righting response time (ADR mouse; oral 10 mg/kg, +15 mins): 3.14 ± 0.278 s
Mean ± SEM righting response time (ADR mouse; oral 10 mg/kg, +30 mins, listed as MGAA, Hydrochloride, 10 mg/kg): 2.74+0.37 secs and 2.74 ± 0.373 secs
Mean ± SEM righting response time (ADR mouse; oral 10 mg/kg, +60 mins): 4.41 ± 1.02 s
Mean ± SEM righting response time (ADR mouse; oral 10 mg/kg, +120 mins): 5.45 ± 0.529 s
Mean ± SEM righting response time (ADR mouse; oral 10 mg/kg, +180 mins): 6.92 ± 1.05 s
Mean ± SEM righting response time (ADR mouse; oral 10 mg/kg, −10 mins (pre dosing), listed as MGAA, Hydrochloride, 10 mg/kg): 5.18 ± 0.43 s and 5.18 ± 0.427 s
Mean ± SEM righting response time (ADR mouse; oral 20 mg/kg, +15 mins): 4.23 ± 1.09 s
Mean ± SEM righting response time (ADR mouse; oral 20 mg/kg, +30 mins): 3.06 ± 0.884 s
Mean ± SEM righting response time (ADR mouse; oral 20 mg/kg, +60 mins): 4.05 ± 0.286 s
Mean ± SEM righting response time (ADR mouse; oral 20 mg/kg, +120 mins): 5.90 ± 0.568 s
Mean ± SEM righting response time (ADR mouse; oral 20 mg/kg, +180 mins): 7.90 ± 1.34 s
Mean maximum reduction in righting time (ADR mouse; oral 20 mg/kg, extended over 3 hours): ~60%
Mean ± SEM righting response time (ADR mouse; oral 20 mg/kg, −10 mins (pre dosing)): 7.13 ± 1.84 s
Simulated gastric fluid (pH 1.1): % remaining after 2 h/37° C. ([1]; simulated gastric fluid pH 1.1, 2 h): 100%
Simulated intestinal fluid (pH 6.8): % remaining after 2 h/37° C. ([1]; simulated intestinal fluid pH 6.8, 2 h): 98.3%
pH 7.4, 37° C. 0.1M phosphate buffer: % remaining after 2 h/37° C. [2]: 100%
AUC of mexiletine ([3]; plasma mexiletine): 604 ng·h/mL
Cmax of mexiletine ([3]; plasma mexiletine): 90.6 ng/mL
T50% Cmax ([3]; plasma mexiletine): 4.76 h
F(rel) ([3]; relative to mexiletine, Hydrochloride, 1 mg/kg): 87.6%
Coefficient of variation of the response ([4]; 10 mg/kg (same molar dose level), time of maximal effect of 9-AC (+30 mins)): 43.3%
Mean ± SEM righting response time ([4]; drug 1 mg/kg po, 9-AC +10 mins (predrug)): 1.98 ± 0.115 s
Mean ± SEM righting response time ([4]; drug 1 mg/kg po, 9-AC +30 mins): 3.52 ± 0.398 s
Mean ± SEM righting response time ([4]; drug 1 mg/kg po, 9-AC +60 mins): 1.86 ± 0.195 s
Mean ± SEM righting response time ([4]; drug 1 mg/kg po, 9-AC +120 mins): 1.07 ± 0.0369 s
Mean ± SEM righting response time ([4]; drug 1 mg/kg po, 9-AC +180 mins): 0.714 ± 0.0427 s
Mean ± SEM righting response time ([4]; drug 5 mg/kg po, 9-AC +10 mins (predrug)): 2.24 ± 0.208 s
Mean ± SEM righting response time ([4]; drug 5 mg/kg po, 9-AC +60 mins): 2.22 ± 0.0828 s
Mean ± SEM righting response time ([4]; drug 5 mg/kg po, 9-AC +120 mins): 1.32 ± 0.194 s
Mean ± SEM righting response time ([4]; drug 5 mg/kg po, 9-AC +180 mins): 1.11 ± 0.220 s
Mean ± SEM righting response time ([4]; drug 10 mg/kg po, 9-AC +10 mins (predrug)): 3.07 ± 0.754 s
Mean ± SEM righting response time ([4]; drug 10 mg/kg po, 9-AC +60 mins): 2.33 ± 0.472 s
Mean ± SEM righting response time ([4]; drug 10 mg/kg po, 9-AC +120 mins): 1.26 ± 0.105 s
Mean ± SEM righting response time ([4]; drug 10 mg/kg po, 9-AC +180 mins): 1.18 ± 0.156 s
Mean ± SEM righting response time ([4]; drug 20 mg/kg po, 9-AC +10 mins (predrug)): 1.90 ± 0.274 s
Mean ± SEM righting response time ([4]; drug 20 mg/kg po, 9-AC +60 mins): 1.51 ± 0.153 s
Mean ± SEM righting response time ([4]; drug 20 mg/kg po, 9-AC +120 mins): 1.18 ± 0.0973 s
Mean ± SEM righting response time ([4]; drug 20 mg/kg po, 9-AC +180 mins): 1.03 ± 0.0709 s
Mean ± SEM righting response time ([4]; drug 40 mg/kg po, 9-AC +10 mins (predrug)): 2.10 ± 0.077 s
Mean ± SEM righting response time ([4]; drug 40 mg/kg po, 9-AC +60 mins): 0.95 ± 0.166 s
Mean ± SEM righting response time ([4]; drug 40 mg/kg po, 9-AC +120 mins): 0.669 ± 0.0558 s
Mean ± SEM righting response time ([4]; drug 40 mg/kg po, 9-AC +180 mins): 0.570 ± 0.0576 s
Overall bioavailability of mexiletine from the prodrug vs mexiletine ([5]; oral): ~2.75 fold
Frel ([5]; oral 5 mg mexiletine free base equivalents/kg, individual animals, vs mexiletine, Hydrochloride): 163^c % and 152^c % and 232% and 303% and 283%
AUC of mexiletine [5, 7]: 29.2* ng · h/mL and 33.3 ng · h/mL and 43.4 ng · h/mL and 40.6 ng · h/mL
Cmax of mexiletine [5, 7]: 8.21 ng/mL and 8.99 ng/mL and 7.97 ng/mL and 10.4 ng/mL and 8.84 ng/mL
T>50% Cmax of mexiletine [5, 7]: 4.1 h (2×) and 2.5 h and 2.4 h and 3.9 h
Tmax of mexiletine [5, 7]: 1 h (3×) and 2 h (2×)
t 1/2 of mexiletine [5, 7]: 1.8* h and 2.6 h and 1.2 h and 2.5 h
t 1/2 of mexiletine, mean ([5]; oral 5 mg mexiletine free base equivalents/kg, ln2/mean k): 1.9^b h
Cmax of mexiletine, mean ([5]; oral 5 mg mexiletine free base equivalents/kg, mean): 8.88 ng/mL
AUC of mexiletine, mean ([5]; oral 5 mg mexiletine free base equivalents/kg, mean (values with extrapolated AUC > 25% omitted)): 39.1 ng·h/mL
Frel, mean ([5]; oral 5 mg mexiletine free base equivalents/kg, mean, vs mexiletine): 273%
Tmax of mexiletine, median ([5]; oral 5 mg mexiletine free base equivalents/kg, median value): 1^a h
T>50% Cmax of mexiletine, median ([5]; oral 5 mg mexiletine free base equivalents/kg, median value, Hydrochloride): 3.9^a h
T>50% Cmax of mexiletine, median ([5]; oral 5 mg mexiletine free base equivalents/kg, median value, listed as MGAA, Hydrochloride): ~4.0 h
AUC of mexiletine glutamic acid amide (prodrug) [5, 8]: 269 ng·h/mL and 266 ng·h/mL and 223 ng·h/mL and 320 ng·h/mL and 413 ng·h/mL
Cmax of mexiletine glutamic acid amide (prodrug) [5, 8]: 127 ng/mL and 186 ng/mL and 101 ng/mL and 180 ng/mL and 138 ng/mL
Tmax of mexiletine glutamic acid amide (prodrug) [5, 8]: 0.25 h and 0.5 h (2×) and 1.0 h (2×)
t 1/2 of mexiletine glutamic acid amide (prodrug) [5, 8]: 1.0 h and 0.9 h (2×) and 1.9 h and 1.3 h
t 1/2 of mexiletine glutamic acid amide (prodrug), mean ([5]; oral 5 mg mexiletine free base equivalents/kg, plasma prodrug, ln2/mean k): 1.0^b h
AUC of mexiletine glutamic acid amide (prodrug), mean [5, 9]: 298 ng·h/mL
Cmax of mexiletine glutamic acid amide (prodrug), mean [5, 9]: 146 ng/mL
Tmax of mexiletine glutamic acid amide (prodrug), median ([5]; oral 5 mg mexiletine free base equivalents/kg, plasma prodrug, median value): 0.5^a h
Bioavailability with respect to mexiletine [6]: near complete
AUC of mexiletine [6, 10]: 1020 ng·h/mL
Cmax of mexiletine [6, 10]: 104 ng/mL
T50% Cmax [6, 10]: 7.64 h
F(rel) ([6]; 1 mg/kg mexiletine free base, relative to mexiletine, Hydrochloride, 1 mg/kg): 94.9%
